Results on 4 molecules are retold here after patent US7388028B2, “Methoxypolyethylene glycol thioester chelate and uses thereof” (priority 2006, dated 2008).

In test [1] the test system is NMDA retinal damage model. As to the kind of experiment: NMDA retinal damage model, electroretinogram A and B waves. The format is in vivo, rats. The procedure:
NMDA retinal damage model: Changes in electroretinogram (ERG) A and B waves have been used as indicators of RGC damage. To examine RGC neuroprotection, 2 ul intravitreal injections of 10 mM NMDA, sufficient to change ERG A and B-waves within 2 weeks, were challenged with co-administered intravitreal (2 mM) or topical 100 mM MPDTE, MPSEDE and amifostine in normal rats unilaterally. For topical administration, rats were pretreated for 5 days prior and 3 days post-NMDA administration with the agents at a frequency of 3 times per day with 20 μl agent. Scotopic ERG changes were measured in normal rats. Rats were dark adapted for at least 4 hrs. Eyes were dilated with atropine after which proparacaine and methylcellulose gel were applied topically. Custom made AgCl electrodes (64-1317, Warner Instruments, Hamden, Conn.) were placed on the apex of the cornea. Stimuli consisted of 10-microsec flashes of unattenuated white light generated by Ganzfield bowl photo stimulator (Grass Instruments, PS22, Quincy, Mass.). Data from each eye was recorded separately with a driver amplifier (Grass Instruments, Model 7DAF Polygraph, Quincy, Mass.). Data was acquired digitally via DASYLab (Bedford, N.H.). The contralateral normal eye served as an age matched negative control, e.g. response in a normal, undamaged eye. Differences in amplitude of the A-wave and B-waves between the treated eye and the contralateral eye and between treatment groups were calculated.

In test [2] the test system is rat surgical glaucoma model (intraocular pressure). As to the kind of experiment: Topical application of MP compounds, IOP measurements on rat surgical glaucoma model. Format: in vivo, rats. The procedure: Rat ocular hypertensive model: Ocular hypertension was induced in 9 male SpragueDawley rats, weighing between 400 to 500 grams. Under general anesthesia with acepromazine maleate (12 mg/Kg) and ketamine (80 mg/Kg), IP, and topical proparacaine (0.5%), dissection of the conjunctiva was made with fine cuts. To reduce the stimulus for revascularization or neovascularization, dissection of the right eye was limited to the area immediately surrounding the vortex veins. Three of four vortex veins were exposed and ligated using 9.0 nylon sutures. Criterion for inclusion into the study was an intraocular pressure (IOP) increase of 5 mm Hg or more when compared to […] baseline IOP. Within 6 weeks, the IOP of all the operated eyes increased at least 5 mm Hg compared to baseline. National Institutes of Health Guidelines and Association for Research in Vision and Opthalmology statement for the Use and Care of Animals were followed in this study.
Intraocular pressure (IOP) Measurements: Prior to initiation of treatment, baseline IOP was obtained in glaucoma rat models. IOP was measured via a specially modified Goldmann applanation tonometer (HAAG-STREIT, Bern, Switzerland) under sedation. Measurements are averages of two consecutive readings and were made at the same time of day and by the same observers.
Topical application of MP compounds for IOP measurements on rat surgical glaucoma model: Rats were treated topically with 20 μl of MP compounds (0.3-100 mM; n=3-6) on the operated eyes. The MP compounds were compared to 10 or 87 mM topical amifostine, a free radical scavenger. MP esterified chelators were diethylenetriaminepentaacetic acid (MPDTE) and MPSEDE.

[3] abbreviates: Intravitreal agent (2 mM) co-administered with intravitreal 10 mM NMDA.
Setting [4] is: Topical agent (100 mM, 3 times per day, 5 days prior and 3 days post-NMDA), intravitreal 10 mM NMDA.

Regarding “methoxypolyethlene glycol thioester of ethylenediaminetetraacetic acid methyl triester [MPSEDE]”, the A wave in test [1] (setting [3]) was 76.2 % Baseline; in test [1] (setting [4]), 95.9 % Baseline. Moreover, the B wave in test [1] (setting [3]) came to 69.6 % Baseline; in test [1] (setting [4]), 93.7 % Baseline. Further, the “reduction of NMDA damage” value is recorded as “significantly reduced NMDA damage” in test [1] (both intravitreal and topical administration (Table 1)); “trend to reduce NMDA damage, but this was not significant” in test [1] (co-administration with NMDA, at the dose tested). For the same molecule, the IOP reduction result in test [2] (single topical dose of 10-100 mM, operated eye, FIG. 5-7) is “significantly reduced IOP”.
For “polyethylene glycol monomethyl ether [MP]”, the IOP reduction result in test [2] (administered alone or together, FIG. 10, not as great as with MPDTE) is “reduction in IOP”.
As for `NCCCNCCSP(=O)(O)O` [amifostine, S-2-[3-aminopropylamino] ethylphosphorothioate], the IOP reduction result in test [2] (topical 10 mM or 87 mM) was “No reduction in IOP”.
With `CN[C@H](CC(=O)O)C(=O)O` [NMDA, N-methyl-D-aspartate, reference compound], the A wave in test [1] (setting [3]) and in test [1] (setting [4]) was 51.2 % Baseline throughout. For the same molecule, the B wave in test [1] (setting [3]) and in test [1] (setting [4]) was 68.4 % Baseline in each case.
